# Results as given in patent US20250319046A1, “PHENYLALANINE-BASED LAT1 INHIBITORS AND USES THEREOF” (MAXYMUNE THERAPEUTICS, INC., priority 2024, published 2025).
# Biological target: LAT1 (Homo sapiens (Human), UniProt Q01650)
# Experiment: LAT1 uptake inhibition assay: [3H]-gabapentin competition uptake in LN229 cells
# Type: cell-based
# Details: [3H]-gabapentin uptake, 15 min incubation in PBS, read-out: IC50, the concentration of test compound at which the [3H]-GP uptake was inhibited by 50%
# Protocol: LAT1 Uptake Inhibition Assay
# The ability of compounds to interact with LAT1 was measured using a radiolabeled competition uptake assay with [^3H]-Gabapentin ([^3H]-GP) (Perkin Elmer) in 96-well plates with LN229 cells (ATCC®). Ten (10)×10^3 (10,000) cells/well were plated in white, clear bottom plates and were allowed to grow for three (3) days. On the fourth day, the cells were washed and then incubated with 50,000 counts per minute (cpm) of [^3H]-GP in phosphate buffered saline (PBS) (VWR International) with increasing concentrations of test compounds in at least triplicate for 15 min. At end of the assay time, the incubation solution was removed, and plates were washed three times (3×) with 100 μL of ice-cold PBS buffer. One-hundred fifty (150) […] of scintillation fluid (VWR International) was added to each well, and the radioactivity retained within the cells was measured on a 96-well scintillation counter. Background uptake ([^3H]-GP uptake in the presence of 10 mM non-radiolabeled gabapentin (GP)) (MedKoo) was subtracted and data were normalized to the DMSO control ([^3H]-GP uptake in the absence of any competitor). Data were fitted to the Michaelis-Menten equation using GraphPad Prism (Version 8.2.0).
# LAT1, sequence (Q01650 whole entry): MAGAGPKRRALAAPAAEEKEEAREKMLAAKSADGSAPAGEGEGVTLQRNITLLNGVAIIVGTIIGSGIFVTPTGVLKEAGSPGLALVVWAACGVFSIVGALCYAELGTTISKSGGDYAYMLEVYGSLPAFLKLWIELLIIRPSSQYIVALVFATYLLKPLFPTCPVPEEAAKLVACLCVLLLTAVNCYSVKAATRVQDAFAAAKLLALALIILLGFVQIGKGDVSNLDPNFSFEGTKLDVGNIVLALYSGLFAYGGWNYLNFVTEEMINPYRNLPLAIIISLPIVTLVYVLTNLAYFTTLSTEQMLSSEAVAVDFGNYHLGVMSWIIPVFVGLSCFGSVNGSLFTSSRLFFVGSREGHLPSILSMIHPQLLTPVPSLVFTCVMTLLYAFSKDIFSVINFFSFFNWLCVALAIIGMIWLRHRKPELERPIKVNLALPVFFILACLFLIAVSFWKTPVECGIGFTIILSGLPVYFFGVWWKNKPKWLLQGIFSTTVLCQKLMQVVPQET
# LAT1, sequence (P08195 whole entry partner): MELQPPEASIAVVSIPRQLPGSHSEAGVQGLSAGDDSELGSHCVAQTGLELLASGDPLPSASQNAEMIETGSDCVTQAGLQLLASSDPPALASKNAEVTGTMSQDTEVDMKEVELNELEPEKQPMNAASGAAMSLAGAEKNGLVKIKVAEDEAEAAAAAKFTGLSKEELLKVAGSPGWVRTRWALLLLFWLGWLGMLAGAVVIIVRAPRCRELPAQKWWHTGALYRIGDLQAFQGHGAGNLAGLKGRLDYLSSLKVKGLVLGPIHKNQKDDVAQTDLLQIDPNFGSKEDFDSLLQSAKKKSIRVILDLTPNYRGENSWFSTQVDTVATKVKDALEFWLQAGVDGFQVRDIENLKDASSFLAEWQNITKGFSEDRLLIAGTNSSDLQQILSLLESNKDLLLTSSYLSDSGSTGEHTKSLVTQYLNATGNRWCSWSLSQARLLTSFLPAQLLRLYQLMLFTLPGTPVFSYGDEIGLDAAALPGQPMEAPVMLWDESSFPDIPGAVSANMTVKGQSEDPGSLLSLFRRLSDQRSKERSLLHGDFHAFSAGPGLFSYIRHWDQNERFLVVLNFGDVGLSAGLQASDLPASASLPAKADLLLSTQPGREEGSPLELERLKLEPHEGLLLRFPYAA
row,Compound,IC50 [nM]
1,"Cc1ccc(CS(=O)(=O)Cc2ccccc2)cc1C[C@H](N)C(=O)O [Compound 56, (S)-2-Amino-3-(5-((benzylsulfonyl)methyl)-2-methylphenyl)propanoic Acid]",100 to 1000
2,"Cc1ccc(NS(=O)(=O)c2cccc3nonc23)cc1C[C@H](N)C(=O)O [Compound 25, (S)-2-Amino-3-(5-(benzo[c][1,2,5]oxadiazole-4-sulfonamido)-2-methylphenyl)propanoic Acid]",1000 to 10000
3,"Cc1ccc(S(=O)(=O)Nc2ccc(Cl)cc2)cc1C[C@@H](N)C(=O)O [Compound 51, (R)-2-Amino-3-(5-(N-(4-chlorophenyl)sulfamoyl)-2-methylphenyl)propanoic Acid]",≥ 10000
4,"CN(C)c1cccc2c(S(=O)(=O)Nc3ccc(C[C@H](N)C(=O)O)cc3)cccc12 [Compound 4, (S)-2-amino-3-(4-((5-(dimethylamino)naphthalene)-1-sulfonamido)phenyl)propanoic acid]",1000 to 10000
5,"Cc1ccc(NS(C)(=O)=O)cc1C[C@H](N)C(=O)O [Compound 67, (S)-2-Amino-3-(2-methyl-5-(methylsulfonamido)phenyl)propanoic Acid]",≥ 10000
6,"CC(C)c1ccc(NS(=O)(=O)c2cccc3c(N(C)C)cccc23)cc1C[C@@H](N)C(=O)O [Compound 34, (R)-2-Amino-3-(5-((5-(dimethylamino)naphthalene)-1-sulfonamido)-2-isopropylphenyl)propanoic Acid]",1000 to 10000
7,"CS(=O)(=O)Nc1ccccc1C[C@H](N)C(=O)O [Compound 1, (S)-2-Amino-3-(2-(methylsulfonamido)phenyl)propanoic Acid]",≥ 10000
8,"N[C@@H](Cc1ccc(S(=O)(=O)Nc2ccc(Cl)cc2)cc1)C(=O)O [Compound 80, (S)-2-Amino-3-(4-(N-(4-chlorophenyl)sulfamoyl)phenyl)propanoic Acid]",1000 to 10000
9,"N[C@@H](Cc1ccc(S(N)(=O)=O)cc1)C(=O)O [Compound 74, (S)-2-Amino-3-(4-sulfamoylphenyl)propanoic acid]",≥ 10000
10,"Cc1ccc(NS(=O)(=O)c2cccnc2)cc1C[C@H](N)C(=O)O [Compound 11, (S)-2-Amino-3-(2-methyl-5-(pyridine-3-sulfonamido)phenyl)propanoic Acid]",1000 to 10000
11,"Cc1ccc(S(=O)(=O)Nc2cccc(S(=O)(=O)Nc3ccc(C)c(C[C@H](N)C(=O)O)c3)c2)cc1 [Compound 32, (S)-2-Amino-3-(2-methyl-5-((3-((4-methylphenyl)sulfonamido)phenyl)sulfonamido)phenyl)propanoic Acid]",100 to 1000
12,"N[C@@H](Cc1cc(NS(=O)(=O)c2ccccc2)cc(NS(=O)(=O)c2ccccc2)c1)C(=O)O [Compound 62, (S)-2-Amino-3-(3,5-bis(phenylsulfonamido)phenyl)propanoic Acid]",≥ 10000
13,"Cc1ccc(S(=O)(=O)Nc2ccccc2Br)cc1C[C@H](N)C(=O)O [Compound 75, (S)-2-Amino-3-(5-(N-(2-bromophenyl)sulfamoyl)-2-methylphenyl)propanoic Acid]",100 to 1000
14,"CN(C)S(=O)(=O)c1cccc(C[C@H](N)C(=O)O)c1 [Compound 73, (S)-2-Amino-3-(3-(N,N-dimethylsulfamoyl)phenyl)propanoic Acid]",1000 to 10000
15,"CNS(=O)(=O)c1cccc(C[C@H](N)C(=O)O)c1 [Compound 72, (S)-2-Amino-3-(3-(N-methylsulfamoyl)phenyl)propanoic Acid]",≥ 10000
16,"CCCCS(=O)(=O)Nc1ccc(C)c(C[C@H](N)C(=O)O)c1 [Compound 58, (S)-2-Amino-3-(5-(butylsulfonamido)-2-methylphenyl)propanoic Acid]",100 to 1000
17,"Cc1ccc(CNS(=O)(=O)Cc2ccccc2)cc1C[C@H](N)C(=O)O [Compound 54, (S)-2-Amino-3-(2-methyl-5-(((phenylmethyl)sulfonamido)methyl)phenyl)propanoic Acid]",1000 to 10000
18,"Cc1ccc(S(=O)(=O)N(C)c2ccc(Cl)cc2)cc1C[C@H](N)C(=O)O [Compound 84, (S)-2-Amino-3-(5-(N-(4-chlorophenyl)-N-methylsulfamoyl)-2-methylphenyl)propanoic Acid]",20 to 100
19,"COc1cc(NS(=O)(=O)c2cccc3c(N(C)C)cccc23)ccc1C[C@H](N)C(=O)O [Compound 8, (S)-2-Amino-3-(4-((5-(dimethylamino)naphthalene)-1-sulfonamido)-2-methoxyphenyl)propanoic Acid]",1000 to 10000
20,"Cc1ccc(NS(=O)(=O)c2c[nH]cn2)cc1C[C@H](N)C(=O)O [Compound 31, (S)-3-(5-(1H-imidazole-4-sulfonamido)-2-methylphenyl)-2-aminopropanoic Acid]",≥ 10000

row,Compound,IC50 [nM]
1,"Cc1ccc(S(=O)(=O)Nc2ccc(C)c(C[C@H](N)C(=O)O)c2)cc1 [Compound 7, (S)-2-Amino-3-(2-methyl-5-((4-methylphenyl)sulfonamido)phenyl)propanoic Acid]",100 to 1000
2,"COc1ccc(NS(=O)(=O)c2cccc3c(N(C)C)cccc23)cc1C[C@H](N)C(=O)O [Compound 5, (S)-2-Amino-3-(5-((5-(dimethylamino)naphthalene)-1-sulfonamido)-2-methoxyphenyl)propanoic Acid]",100 to 1000
3,"Cc1ccc(NS(=O)(=O)c2cccc3ccccc23)cc1C[C@H](N)C(=O)O [Compound 6, (S)-2-Amino-3-(2-methyl-5-(naphthalene-1-sulfonamido)phenyl)propanoic Acid]",100 to 1000
4,"Cc1ccc(NS(=O)(=O)C[C@@]23CC[C@H](CC2=O)C3(C)C)cc1C[C@H](N)C(=O)O [Compound 22, (S)-2-Amino-3-(5-((((1R,4R)-7,7-dimethyl-2-oxobicyclo[2.2.1]heptan-1-yl)methyl)sulfonamido)-2-methylphenyl)propanoic Acid]",1000 to 10000
5,"Cc1ccc(NS(=O)(=O)Cc2ccccc2)cc1C[C@H](N)C(=O)O [Compound 23, (S)-2-Amino-3-(2-methyl-5-((phenylmethyl)sulfonamido)phenyl)propanoic Acid]",100 to 1000
6,"Cc1ccc(NS(=O)(=O)c2cccc3ncccc23)cc1C[C@H](N)C(=O)O [Compound 9, (S)-2-Amino-3-(2-methyl-5-(quinoline-5-sulfonamido)phenyl)propanoic Acid]",1000 to 10000
7,"Cc1ccc(S(=O)(=O)Cc2ccccc2)cc1C[C@H](N)C(=O)O [Compound 65, (S)-2-Amino-3-(5-(benzylsulfonyl)-2-methylphenyl)propanoic Acid]",100 to 1000
8,"N[C@@H](Cc1cc(Cl)c(NS(=O)(=O)c2ccccc2)c(Cl)c1)C(=O)O [Compound 47, (S)-2-Amino-3-(3,5-dichloro-4-(phenylsulfonamido)phenyl)propanoic Acid]",≥ 10000
9,"N[C@@H](Cc1cccc(S(N)(=O)=O)c1)C(=O)O [Compound 71, (S)-2-Amino-3-(3-sulfamoylphenyl)propanoic Acid]",≥ 10000
10,"Cc1ccc(SCc2ccccc2)cc1C[C@H](N)C(=O)O [Compound 59, (S)-2-Amino-3-(5-(benzylthio)-2-methylphenyl)propanoic Acid]",100 to 1000
11,"CS(=O)(=O)Nc1ccc(C[C@H](N)C(=O)O)cc1 [Compound 70, (S)-2-Amino-3-(4-(methylsulfonamido)phenyl)propanoic Acid]",≥ 10000
12,"Cc1ccc(C[S+]([O-])Cc2ccccc2)cc1C[C@H](N)C(=O)O (stereo partly drawn) [Compound 60, (2S)-2-Amino-3-(5-((benzylsulfinyl)methyl)-2-methylphenyl)propanoic Acid]",100 to 1000
13,"Cc1ccc(NS(=O)(=O)c2cc(Cl)cc(Cl)c2)cc1C[C@H](N)C(=O)O [Compound 43, (S)-2-Amino-3-(5-((3,5-dichlorophenyl)sulfonamido)-2-methylphenyl)propanoic Acid]",100 to 1000
14,"Cc1ccc(NS(=O)(=O)c2cccc3c(N(C)C)cccc23)cc1C[C@H](N)C(=O)O [Compound 2, (S)-2-Amino-3-(5-((5-(dimethylamino)naphthalene)-1-sulfonamido)-2-methylphenyl)propanoic Acid]",100 to 1000
15,"Cc1ccc(NS(=O)(=O)c2ccc(-c3ccccc3)cc2)cc1C[C@H](N)C(=O)O [Compound 17, (S)-3-(5-([1,1′-Biphenyl]-4-sulfonamido)-2-methylphenyl)-2-aminopropanoic Acid]",100 to 1000
16,"Cc1ccc(S(=O)(=O)Nc2cc(C[C@H](N)C(=O)O)cc(NS(=O)(=O)c3ccc(C)cc3)c2)cc1 [Compound 63, (S)-2-Amino-3-(3,5-bis((4-methylphenyl)sulfonamido)phenyl)propanoic Acid]",1000 to 10000
17,"N[C@@H](Cc1cccc(S(=O)(=O)N2CCCCC2)c1)C(=O)O [Compound 78, (S)-2-Amino-3-(3-(piperidin-1-ylsulfonyl)phenyl)propanoic Acid]",1000 to 10000
18,"Cc1ccc(NS(=O)(=O)c2csc3ccccc23)cc1C[C@H](N)C(=O)O [Compound 27, (S)-2-Amino-3-(5-(benzo[b]thiophene-3-sulfonamido)-2-methylphenyl)propanoic Acid]",100 to 1000
19,"Cc1ccc(CSCc2ccccc2)cc1C[C@H](N)C(=O)O [Compound 55, (S)-2-Amino-3-(5-((benzylthio)methyl)-2-methylphenyl)propanoic Acid]",100 to 1000
20,"N[C@@H](Cc1cccc(NS(=O)(=O)c2ccccc2)c1)C(=O)O [Compound 37, (S)-2-Amino-3-(3-(phenylsulfonamido)phenyl)propanoic Acid]",100 to 1000
